Experiments:
[1] = system: HT1080 cells; test: Cellular assay: inhibition of 2-HG production in HT1080 cells (LC-MS, 48 hours); type: cell-based; settings: Homo sapiens, HT-1080, 2-HG in media by LC-MS
Method: Cells (HT1080 or U87MG) were grown in T125 flasks in DMEM containing 10% FBS, 1× penicillin/streptomycin and 500 ug/mL G418 (present in U87MG cells only). They were harvested by trypsin and seeded into 96 well white bottom plates at a density of 5000 cell/well in 100 ul/well in DMEM with 10% FBS. No cells were placed in columns 1 and 12. Cells were incubated overnight at 37° C. in 5% CO2. The next day test compounds were made up at 2× the final concentration and 100 ul were added to each cell well. The final concentration of DMSO was 0.2% and the DMSO control wells were plated in row G. The plates were then placed in the incubator for 48 hours. At 48 hours, 100 ul of media was removed from each well and analyzed by LC-MS for 2-HG concentrations. The cell plate was placed back in the incubator for another 24 hours. At 72 hours post compound addition, 10 mL/plate of Promega Cell Titer Glo reagent was thawed and mixed. The cell plate was removed from the incubator and allowed to equilibrate to room temperature. Then 100 ul of Promega Cell Titer Glo reagent was added to each well of media. The cell plate was then placed on an orbital shaker for 10 minutes and then allowed to sit at room temperature for 20 minutes. The plate was then read for luminescence with an integration time of 500 ms.

[2] = system: U87MG cells; test: Cellular assay: inhibition of 2-HG production in U87MG cells (LC-MS, 48 hours); type: cell-based; settings: Homo sapiens, U-87 MG, 2-HG in media by LC-MS
Summary of the method: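 HT1080 or U87MG cells (5000/well, DMEM + 10% FBS) seeded overnight, then exposed to compound (0.2% DMSO final) for 48 h; medium 2-HG measured by LC-MS. Viability read by CellTiter-Glo luminescence at 72 h.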

[3] = target: IDH1 R132H (Homo sapiens, UniProt O75874, R132H); test: In vitro assay for IDH1 R132H inhibitors (NADPH/aKG, resazurin detection); type: biochemical; settings: Table 4B; 0.2 μg/ml IDH1 R132H, 50 minutes at room temperature; read-out: IC50, IDH1 R132H Inhibition
Sequence of IDH1 R132H (O75874 whole entry R132H): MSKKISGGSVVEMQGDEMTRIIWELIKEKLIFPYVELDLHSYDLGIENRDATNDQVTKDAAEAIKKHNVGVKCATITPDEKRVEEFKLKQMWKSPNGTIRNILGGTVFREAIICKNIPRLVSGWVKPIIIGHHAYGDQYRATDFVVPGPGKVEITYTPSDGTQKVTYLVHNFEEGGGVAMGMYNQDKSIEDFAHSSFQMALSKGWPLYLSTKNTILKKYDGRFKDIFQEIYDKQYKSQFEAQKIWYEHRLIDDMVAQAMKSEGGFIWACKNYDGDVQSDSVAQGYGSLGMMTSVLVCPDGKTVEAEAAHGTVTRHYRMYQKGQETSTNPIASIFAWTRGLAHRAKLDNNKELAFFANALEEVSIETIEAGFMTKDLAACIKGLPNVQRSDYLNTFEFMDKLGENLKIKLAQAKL
Summary of the method: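 Reaction ran 50 min at room temperature in Tris pH 7.5 buffer with 150 mM NaCl, 10 mM MgCl2 and 0.03% BSA. Mix concentrations were 0.2 μg/ml mutant enzyme, 8 uM NADPH and 2 mM aKG. Detection added 30 μM resazurin, with resorufin fluorescence (Ex544/Em590) measured 5 min later.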

SMILES | IC50 [1] | IC50 [2] | IC50 [3]
Cc1ccccc1C(C(=O)NC1CCCCC1)N(C(=O)CNCc1ccn(C)n1)c1cccc(F)c1 (stereo not drawn) [Compound 256] | 250 to 1000 nM | 1000 to 5000 nM | 100 to 1000 nM
Cc1ccccc1C(C(=O)NC1CCCCC1)N(C(=O)CNCc1nccs1)c1cccc(F)c1 (stereo not drawn) [Compound 257] | 250 to 1000 nM | 250 to 1000 nM | 100 to 1000 nM
Cc1ccccc1C(C(=O)NC1CCCCC1)N(C(=O)CNc1ccc(S(C)(=O)=O)cc1)c1cccc(F)c1 (stereo not drawn) [Compound 258] | 250 to 1000 nM | 250 to 1000 nM | 100 to 1000 nM
Cc1ccccc1C(C(=O)NC1CCCCC1)N(C(=O)COC1CCOCC1)c1cccc(F)c1 (stereo not drawn) [Compound 259] | 250 to 1000 nM | 250 to 1000 nM | 100 to 1000 nM
Cc1ccccc1C(C(=O)NC1CCCCC1)N(C(=O)COc1ccc(F)cn1)c1cccc(F)c1 (stereo not drawn) [Compound 260] | ≤ 250 nM | 250 to 1000 nM | ≤ 100 nM
Cc1ccccc1C(C(=O)NC1CCCCC1)N(C(=O)Cc1c[nH]c2ccncc12)c1cccc(F)c1 (stereo not drawn) [Compound 261] | 250 to 1000 nM | 1000 to 5000 nM | 100 to 1000 nM
Cc1ccccc1C(C(=O)NC1CCCCC1)N(C(=O)C(=O)c1c[nH]c2ccccc12)c1cccc(F)c1 (stereo not drawn) [Compound 262] | 1000 to 5000 nM | 1000 to 5000 nM | 100 to 1000 nM
Cc1ccccc1C(C(=O)NC1CCCCC1)N(C(=O)Cc1ccc(OC(=O)N(C)C)cc1)c1cccc(F)c1 (stereo not drawn) [Compound 263] | ≤ 250 nM | 250 to 1000 nM | 100 to 1000 nM
Cc1ccccc1C(C(=O)NC1CCCCC1)N(C(=O)Cc1ccc(OC(=O)N2CCOCC2)cc1)c1cccc(F)c1 (stereo not drawn) [Compound 264] | 250 to 1000 nM | 250 to 1000 nM | 100 to 1000 nM
Cc1ccccc1C(C(=O)NC1CCCCC1)N(C(=O)CNc1cccc(C#N)c1)c1cccc(F)c1 (stereo not drawn) [Compound 265] | ≤ 250 nM | 250 to 1000 nM | ≤ 100 nM
Cc1ccccc1C(C(=O)NC1CCCCC1)N(C(=O)Cn1cnc2cnccc21)c1cccc(F)c1 (stereo not drawn) [Compound 266] | > 5000 nM | > 5000 nM | 100 to 1000 nM
Cc1ccccc1C(C(=O)NC1CCCCC1)N(C(=O)CNCc1cscn1)c1cccc(F)c1 (stereo not drawn) [Compound 267] | 250 to 1000 nM | 1000 to 5000 nM | 100 to 1000 nM
Cc1ccccc1C(C(=O)NC1CCCCC1)N(C(=O)Cn1ccnc1C)c1cccc(Br)c1 (stereo not drawn) [Compound 268] | 1000 to 5000 nM | ≤ 250 nM | 100 to 1000 nM
Cc1ccccc1C(C(=O)NC1CCCCC1)N(C(=O)C(=O)c1c[nH]c2ccncc12)c1cccc(F)c1 (stereo not drawn) [Compound 269] | 1000 to 5000 nM | 1000 to 5000 nM | 100 to 1000 nM
Cc1ccccc1C(C(=O)NC1CCCCC1)N(C(=O)C(=O)NCc1ccncc1)c1cccc(F)c1 (stereo not drawn) [Compound 270] | 1000 to 5000 nM | 1000 to 5000 nM | 100 to 1000 nM
Cc1ccccc1C(C(=O)NC1CCCCC1)N(C(=O)Cn1ccc2ccccc21)c1cccc(F)c1 (stereo not drawn) [Compound 271] | ≤ 250 nM | 250 to 1000 nM | ≤ 100 nM
Cc1ccccc1C(C(=O)NC1CCCCC1)N(C(=O)CNc1cccnc1F)c1cccc(F)c1 (stereo not drawn) [Compound 272] | ≤ 250 nM | ≤ 250 nM | ≤ 100 nM
Cc1ccccc1C(C(=O)NC1CCCCC1)N(C(=O)COc1cccnn1)c1cccc(F)c1 (stereo not drawn) [Compound 273] | 250 to 1000 nM | 250 to 1000 nM | 100 to 1000 nM
Cc1ccccc1C(C(=O)NC1CCCCC1)N(C(=O)Cc1c[nH]c2cccnc12)c1cccc(F)c1 (stereo not drawn) [Compound 275] | ≤ 250 nM | 250 to 1000 nM | ≤ 100 nM
Cc1ccccc1C(C(=O)NC1CCCCC1)N(C(=O)Cc1c[nH]c2cnccc12)c1cccc(F)c1 (stereo not drawn) [Compound 276] | ≤ 250 nM | ≤ 250 nM | ≤ 100 nM
Cc1ccccc1C(C(=O)NC1CCCCC1)N(C(=O)CNc1ccccc1C#N)c1cccc(F)c1 (stereo not drawn) [Compound 278] | ≤ 250 nM | ≤ 250 nM | 100 to 1000 nM
Cc1ccccc1C(C(=O)NC1CCCCC1)N(C(=O)CNc1ccc(C(F)(F)F)nc1)c1cccc(F)c1 (stereo not drawn) [Compound 279] | 1000 to 5000 nM | > 5000 nM | 100 to 1000 nM
Cc1ccccc1C(C(=O)NC1CCCCC1)N(C(=O)CNc1ccnc(F)c1)c1cccc(F)c1 (stereo not drawn) [Compound 280] | 1000 to 5000 nM | 1000 to 5000 nM | 100 to 1000 nM
Cc1ccccc1C(C(=O)NC1CCCCC1)N(C(=O)COCc1ccccn1)c1cccc(F)c1 (stereo not drawn) [Compound 281] | ≤ 250 nM | 250 to 1000 nM | 100 to 1000 nM
Cc1ccccc1C(C(=O)NC1CCCCC1)N(C(=O)COCc1cnccn1)c1cccc(F)c1 (stereo not drawn) [Compound 282] | 250 to 1000 nM | > 5000 nM | 100 to 1000 nM
Cc1ccccc1C(C(=O)NC1CCCCC1)N(C(=O)C(C)c1c[nH]c2ccccc12)c1cccc(F)c1 (stereo not drawn) [Compound 283] | 250 to 1000 nM | 250 to 1000 nM | 100 to 1000 nM
Cc1ccccc1C(C(=O)NC1CCCCC1)N(C(=O)C(=O)c1nccn1C)c1cccc(F)c1 (stereo not drawn) [Compound 284] | 250 to 1000 nM | 1000 to 5000 nM | 100 to 1000 nM
Cc1ccccc1C(C(=O)NC1CCCCC1)N(C(=O)Cn1ccnc1C)c1cccc(-c2ccccc2)c1 (stereo not drawn) [Compound 286] | 250 to 1000 nM | ≤ 250 nM | 100 to 1000 nM
Cc1ccccc1C(C(=O)NC1CCCCC1)N(C(=O)CNc1cc(F)ccn1)c1cccc(F)c1 (stereo not drawn) [Compound 287] | ≤ 250 nM | ≤ 250 nM | ≤ 100 nM
Cc1ccccc1C(C(=O)NC1CCCCC1)N(C(=O)Cc1cccnc1)c1cccc(F)c1 (stereo not drawn) [Compound 288] | 250 to 1000 nM | 1000 to 5000 nM | ≤ 100 nM

Results, then the compound that gave them:

IC50 [1] | IC50 [2] | IC50 [3] | SMILES
≤ 250 nM | ≤ 250 nM | ≤ 100 nM | Cc1ccccc1C(C(=O)NC1CCCCC1)N(C(=O)Cc1n[nH]c2ccccc12)c1cccc(F)c1 (stereo not drawn) [Compound 289]
≤ 250 nM | 250 to 1000 nM | ≤ 100 nM | Cc1ccccc1C(C(=O)NC1CCCCC1)N(C(=O)CNc1ccc(-c2nnco2)cc1)c1cccc(F)c1 (stereo not drawn) [Compound 290]
≤ 250 nM | 250 to 1000 nM | ≤ 100 nM | Cc1ccccc1C(C(=O)NC1CCCCC1)N(C(=O)CNc1ccc(-c2ncon2)cc1)c1cccc(F)c1 (stereo not drawn) [Compound 291]
1000 to 5000 nM | 1000 to 5000 nM | 100 to 1000 nM | Cc1ccccc1C(C(=O)NC1CCCCC1)N(C(=O)Cn1ccnc1C)c1cccc(-c2cccc(OC(F)(F)F)c2)c1 (stereo not drawn) [Compound 292]
250 to 1000 nM | ≤ 250 nM | ≤ 100 nM | COC(=O)N1CCCCC1C(=O)N(c1cccc(F)c1)C(C(=O)NC1CCCCC1)c1ccccc1C (stereo not drawn) [Compound 293]
1000 to 5000 nM | 250 to 1000 nM | 100 to 1000 nM | Cc1ccccc1C(C(=O)NC1CCCCC1)N(C(=O)Cn1cncn1)c1cccc(F)c1 (stereo not drawn) [Compound 294]
1000 to 5000 nM | ≤ 250 nM | 100 to 1000 nM | Cc1nccn1CC(=O)N(c1cccc(F)c1)C(C(=O)NC1CCCCC1)c1ccccc1 (stereo not drawn) [Compound 295]
1000 to 5000 nM | ≤ 250 nM | 100 to 1000 nM | O=C(NC1CCCCC1)C(c1ccccc1)N(C(=O)Cn1ccnc1)c1cccc(F)c1 (stereo not drawn) [Compound 296]
250 to 1000 nM | ≤ 250 nM | ≤ 100 nM | Cc1ccccc1C(C(=O)NC1CCCCC1)N(C(=O)Cc1ccc2[nH]ccc2c1)c1cccc(F)c1 (stereo not drawn) [Compound 297]
250 to 1000 nM | 1000 to 5000 nM | 100 to 1000 nM | Cc1ccn(CC(=O)N(c2cccc(F)c2)C(C(=O)NC2CCCCC2)c2ccccc2C)n1 (stereo not drawn) [Compound 298]
1000 to 5000 nM | 250 to 1000 nM | 100 to 1000 nM | COc1cccc(-c2cccc(N(C(=O)Cn3ccnc3C)C(C(=O)NC3CCCCC3)c3ccccc3C)c2)c1 (stereo not drawn) [Compound 299]
≤ 250 nM | ≤ 250 nM | ≤ 100 nM | Cc1ccccc1C(C(=O)NC1CCCCC1)N(C(=O)CNc1ncccc1F)c1cccc(F)c1 (stereo not drawn) [Compound 301]
≤ 250 nM | 250 to 1000 nM | 100 to 1000 nM | Cc1ccccc1C(C(=O)NC1CCCCC1)N(C(=O)CNc1cccc(F)n1)c1cccc(F)c1 (stereo not drawn) [Compound 302]
≤ 250 nM | 250 to 1000 nM | 100 to 1000 nM | Cc1ccccc1C(C(=O)NC1CCCCC1)N(C(=O)COc1cc(C(F)(F)F)ccn1)c1cccc(F)c1 (stereo not drawn) [Compound 303]
> 5000 nM | 250 to 1000 nM | 100 to 1000 nM | Cc1ccccc1C(C(=O)NC1CCCCC1)N(Cc1nccs1)C(=O)Cn1ccnc1 (stereo not drawn) [Compound 304]
250 to 1000 nM | 250 to 1000 nM | 100 to 1000 nM | Cc1ccccc1C(C(=O)NC1CCCCC1)N(C(=O)Cc1ccccn1)c1cccc(F)c1 (stereo not drawn) [Compound 305]
